From patent US9518065B2, “IRAK inhibitors and uses thereof” (NIMBUS IRIS, INC., priority 2013, dated 2016)
pIC50: −log10 of the molar value. Read-outs that look alike come from different tables or passages of the source.

What was measured:
[1] = molecular target: T1, IRAK4 (Homo sapiens, UniProt Q9NWZ3); experiment: IRAK-4 activity inhibition assay (Caliper); type: biochemical; conditions: 3.5 nM IRAK4, 37 μM ATP, 1.5 μM Peptide 8
T1 construct: purchased CARNA Bioscience 09-145
T1 sequence (Q9NWZ3 1-460): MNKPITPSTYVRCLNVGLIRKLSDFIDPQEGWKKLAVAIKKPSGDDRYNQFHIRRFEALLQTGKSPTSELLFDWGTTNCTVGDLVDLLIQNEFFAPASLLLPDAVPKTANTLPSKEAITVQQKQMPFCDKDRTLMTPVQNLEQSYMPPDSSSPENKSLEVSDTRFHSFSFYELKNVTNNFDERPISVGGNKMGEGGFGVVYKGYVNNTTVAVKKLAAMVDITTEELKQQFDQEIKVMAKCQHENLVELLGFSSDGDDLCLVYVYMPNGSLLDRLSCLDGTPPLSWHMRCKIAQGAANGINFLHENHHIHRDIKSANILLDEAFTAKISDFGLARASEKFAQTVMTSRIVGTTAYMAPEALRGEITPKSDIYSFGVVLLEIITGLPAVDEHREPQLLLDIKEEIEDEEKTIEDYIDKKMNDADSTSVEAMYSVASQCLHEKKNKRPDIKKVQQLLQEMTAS
How it was run: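 Caliper mobility-shift assay: 3.5 nM IRAK4 preincubated 10 min with compound (10-point series, duplicates), then 1.5 μM peptide 8 and 37 μM ATP added in HEPES pH 7.5 with Mg2+/Mn2+ and DTT, 40 min at 28°C before EDTA stop. Percent inhibition from substrate conversion relative to DMSO and no-enzyme controls.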

[2] = tested on: TNFα and IL8 production in THP-1 cells; experiment: LPS induced cytokine (TNFα and IL8) production assay in THP-1 cells; type: cell-based; conditions: 300 ng/mL LPS
Method: Provided compounds were also assayed in an LPS (Lipopolysacharide) or R848 (TLR-7 agonist) induced cytokine (TNFα and IL8) production assay in THP-1 cells, human white blood cells (hWBC), and whole blood. The exemplary protocol for this assay in THP-1 cells was as follows below.
THP-1 cells from ATCC (TIB-202) were cultured in RPMI Medium 1640 (Invitrogen, Cat No. A10491-01), 10% fetal bovine serum (Invitrogen, Cat No. 10099141, Lot No. 8172882) containing 100 U/mL Penicillin, 100 μg/mL streptomycin (Invitrogen, Cat No. 15140-122), and 50 uM 2-Mercaptoethanol (Invitrogen, Cat No. 21985023). LPS-EK ultra pure (Invivogen, Cat No. tlrl-peklps) was used to induce IL8 and TNFα production, that was detected in the cell culture supernatant by IL8 HTRF kit (Cisbio, Cat No. 62IL8PEB) and TNFα HTRF kit (Cisbio, Cat No. 62TNFPEB), as per manufacturer instructions. Cells were cultured in 96 well assay plates at 100,000 cells per well, and compounds diluted in final 0.3% DMSO were pre-incubated with cells for 1 hour prior to stimulation with 300 ng/mL LPS. Cytokine production in cell supernatant was measured at 5 hours for TNFα and IL8 production, and for 16 hours for IL8 production and assessment of cell viability.
The compound numbers correspond to the compound numbers in Table 1. […] “NA” stands for “not assayed.”

[3] = Homo sapiens, 5 hours, read-out: TNFα production IC50
[4] = Homo sapiens, 16 hours, read-out: IL8 (16 h) production IC50

Compound | pIC50 [1] | pIC50 [2, 3] | pIC50 [2, 4] | pIC50 ([2]; 5 hours, read-out: TNFα production IC50) | pIC50 ([2]; 16 hours, read-out: IL8 (16 h) production IC50)
CCc1nc2c(N[C@H]3CC[C@H](N4CCOCC4)CC3)nc(Nc3cnn(C4CCOCC4)c3)nc2s1 [Compound I-9, 2-ethyl-5-N-[1-(oxan-4-yl)-1H-pyrazol-4-yl]-7-N—[trans-4-(morpholin-4-yl)cyclohexyl]-[1,3]thiazolo[5,4-d]pyrimidine-5,7-diamine] | ≥ 6.00 | ≥ 6.60 | ≥ 6.60 | – | –
CCc1nc2c(N[C@H]3CC[C@H](N4CCOCC4)CC3)nc(Nc3cnn(C)c3)nc2s1 [Compound I-7, 2-ethyl-N5-(1-methyl-1H-pyrazol-4-yl)-N7-((1r,4r)-4-morpholinocyclohexyl)-thiazolo[5,4-d]pyrimidine-5,7-diamine] | ≥ 6.00 | ≥ 6.60 | ≥ 6.60 | – | –
2-methyl-N5-(1-methyl-1H-pyrazol-4-yl)-N7-((1r,4r)-4-morpholinocyclohexyl)thiazolo[5,4-d]pyrimidine-5,7-diamine [Compound I-24] | ≥ 6.00 | – | – | ≤ 6.30 | 6.30 to 6.60
